From patent US8580959B2, “Azolotriazinone melanin concentrating hormone receptor-1 antagonists” (Bristol-Myers Squibb Company, priority 2008, dated 2013)
Structures can show the parent of a compound that is named as a salt.

Assays:
[1] = test system: Male SPRAGUE DAWLEY rats; assay: Assessment of in vivo MCHR activity (body weight, rats with choice of chow and high fat high sugar diet); design: species or system rat; conditions: dose 30 mg/kg p.o. daily day 0 through day 4, rats; parent dosed as its prodrug example (22, 63, 50)
Protocol: Assessment of In Vivo MCHR Activity
Male SPRAGUE DAWLEY® (CD, Charles River Breeding Laboratory) rats weighing approximately 240 grams were place in individual plastic cages with ALPHADRI® bedding. The room was maintained at 72° F. and 50% humidity, and a 12/12 light dark cycle with lights out at 1600 hours. The rats were conditioned for 5 days prior to the start of the study to having a choice of foods. A normal chow (HARLAN TEKLAD®, 2018) that contains 18% protein, 5% fat and 73% carbohydrate and a high fat high sugar diet (Research Diets (D2327)) that contains 20% protein, 40% fat and 40% carbohydrate where the carbohydrate is entirely sucrose and the fat is soybean and coconut oil. […] Body weight and consumption of both kinds of food as well as water intake were measured daily. Water was available ad lib throughout the study. Food consumption is presented as daily caloric consumption which is the sum of grams of chow multiplied by the Kcal per gram (3.5) plus grams of high fat high sugar multiplied by Kcal per gram (4.59).
Baseline body weight was measured prior to drug treatment on day 0 of the study. Baseline food consumption was the average of the 3 days prior to the first drug treatment. Drug was administered daily p.o. at 2.0 ml/kg at 1500 hours beginning on day 0 and continuing daily through day 4 as a suspension in 0.5% methyl cellulose, 0.1% Tween 80 in water at 3.0, 10 and 30 mg/kg p.o. All data were evaluated using ANOVA and Fishers PLSD statistics.

[2] = molecular target: MCHR1 Rat (Rattus norvegicus, UniProt P97639); assay: MCHR1 rat binding (radioligand binding assay)
[3] = molecular target: T1, mutated (E4Q, A5T) hMCHR1 receptor (Homo sapiens, UniProt Q99705, A5T/E4Q); assay: Radioligand binding assay for assessment of MCHR1 activity (human); conditions: membranes of HEK-293 cells, [Phe13,[125I]Tyr19]-MCH competition
T1 construct: expressed in transfected cells; host or cells: HEK-293 (stably transfected), membranes
Protocol: Radioligand Binding Assay for Assessment of MCHR1 Activity
Membranes from stably transfected HEK-293 cells expressing a mutated (E4Q, A5T) hMCHR1 receptor were prepared by dounce homogenization and differential centrifugation. Binding experiments were carried out with 0.5-1.0 ug of membrane protein incubated in a total of 0.2 ml in 25 mM HEPES (pH 7.4) with 10 mM MgCl2, 2 mM EGTA, and 0.1% BSA (Binding Buffer) for 90 min. […] Filters were dried, 0.05 ml microscint 20 was added to each well and radioactivity was subsequently quantified by scintillation counting on a TOPCOUNT® microplate scintillation counter (Packard). Inhibitory constants were determined by nonlinear least squares analysis using a four parameter logistic equation.

T1 sequence (Q99705 whole entry E4Q/A5T): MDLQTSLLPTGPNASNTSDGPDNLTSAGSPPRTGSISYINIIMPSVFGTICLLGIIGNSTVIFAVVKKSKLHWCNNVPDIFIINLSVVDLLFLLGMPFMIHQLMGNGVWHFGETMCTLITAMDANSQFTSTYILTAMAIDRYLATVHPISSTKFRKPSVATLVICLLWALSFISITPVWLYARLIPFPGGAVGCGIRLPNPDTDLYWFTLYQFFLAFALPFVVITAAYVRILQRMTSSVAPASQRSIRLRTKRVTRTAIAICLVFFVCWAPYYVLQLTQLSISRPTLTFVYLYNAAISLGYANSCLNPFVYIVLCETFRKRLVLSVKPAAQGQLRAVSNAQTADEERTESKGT
Chain of MCHR1 Rat (P97639 whole entry): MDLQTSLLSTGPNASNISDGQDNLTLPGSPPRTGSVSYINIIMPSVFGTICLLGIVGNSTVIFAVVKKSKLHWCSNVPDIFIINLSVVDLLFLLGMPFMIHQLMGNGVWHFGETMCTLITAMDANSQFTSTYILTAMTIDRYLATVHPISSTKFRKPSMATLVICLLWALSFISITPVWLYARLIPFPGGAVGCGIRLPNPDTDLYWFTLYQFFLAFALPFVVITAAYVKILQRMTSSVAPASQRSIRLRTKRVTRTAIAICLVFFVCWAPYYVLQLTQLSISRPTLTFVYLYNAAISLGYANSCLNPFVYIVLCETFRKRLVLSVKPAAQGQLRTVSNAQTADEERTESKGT

Molecule	% Weight Reduction versus Vehicle [1]	Ki [2]	Ki [3]
6-(4-Chlorophenyl)-3-(4-(2-hydroxy-2-methylpropoxy)-3-methoxyphenyl)pyrrolo[1,2-f][1,2,4]triazin-4(3H)-one [Example 1]	6.9%		
COc1cc(-n2cnn3cc(-c4ccc(Cl)cc4)cc3c2=O)ccc1OCC(C)(C)O [Example 1, 6-(4-Chlorophenyl)-3-(4-(2-hydroxy-2-methylpropoxy)-3-methoxyphenyl)pyrrolo[1,2-f][1,2,4]triazin-4(3H)-one]		2.76 nM	4.42 nM
COc1ccc(-n2cnn3cc(-c4ccc(Cl)cc4)cc3c2=O)cc1OC [Example 2, 6-(4-Chlorophenyl)-3-(3,4-dimethoxyphenyl)pyrrolo[1,2-f][1,2,4]triazin-4(3H)-one]		8.29 nM	21.4 nM
COc1cc(-n2cnn3cc(-c4ccc(Cl)cc4)cc3c2=O)ccc1OCC(O)C1CC1 (centres unmarked) [Example 3, 6-(4-Chlorophenyl)-3-(4-(2-cyclopropyl-2-hydroxyethoxy)-3-methoxyphenyl)pyrrolo[1,2-f][1,2,4]triazin-4(3H)-one]		2.79 nM	4.49 nM
COc1cc(-n2cnn3cc(-c4ccc(Cl)cc4)cc3c2=O)ccc1OCCN1CCCC1 [Example 4, 6-(4-Chlorophenyl)-3-(3-methoxy-4-(2-(pyrrolidin-1-yl)ethoxy)phenyl)pyrrolo[1,2-f][1,2,4]triazin-4(3H)-one]		0.7 nM	0.52 nM
COc1cc(-n2cnn3nc(-c4ccc(Cl)cc4)cc3c2=O)ccc1OCCN1CCC(O)C1 (centres unmarked) [Example 6, 6-(4-Chlorophenyl)-3-(4-(2-(3-hydroxypyrrolidin-1-yl)ethoxy)-3-methoxyphenyl)pyrazolo[1,5-f][1,2,4]triazin-4(3H)-one]		0.8 nM	2.2 nM
COc1cc(-n2cnn3cc(-c4ccc(Cl)cc4)cc3c2=O)ccc1OCC(C)N1CCCC1 (centres unmarked) [Example 13, 6-(4-Chlorophenyl)-3-[3-methoxy-4-(2-pyrrolidin-1-yl-propoxy)-phenyl]-3H-pyrrolo[2,1-f] [1,2,4]triazin-4-one]			0.17 nM
O=c1c2cc(-c3ccc(Cl)cc3)cn2ncn1-c1ccc(N2CCC(O)CC2)nc1 [Example 18, 6-(4-Chlorophenyl)-3-(6-(4-hydroxypiperidin-1-yl)pyridin-3-yl)pyrrolo[1,2-f][1,2,4]triazin-4(3H)-one]			11.5 nM
O=c1c2cc(-c3ccc(Cl)cn3)cn2ncn1-c1ccc(N2CC[C@@H](O)C2)nc1 [Example 31, 6-(5-Chloropyridin-2-yl)-3-[6-(3-hydroxy-pyrrolidin-1-yl)-pyridin-3-yl]-3H-pyrrolo[2,1-f][1,2,4]triazin-4-one]			124 nM
COc1cc(-n2cnn3cc(-c4ccc(Cl)cn4)cc3c2=O)ccc1OCC(C)(C)O [Example 33, 6-(5-Chloropyridin-2-yl)-3-[4-(2-hydroxy-2-methyl-propoxy)-3-methoxy-phenyl]-3H-pyrrolo[2,1-f][1,2,4]triazin-4-one]	11.2%		
COc1ccc(-n2cnn3cc(-c4ccc(Cl)cc4)nc3c2=O)cc1OC [Example 38, 6-(4-Chlorophenyl)-3-(3,4-dimethoxy-phenyl)-3H-imidazo[2,1-f][1,2,4]triazin-4-one]			76.1 nM
COc1cc(-n2cnn3cc(-c4ccc(Cl)cn4)cc3c2=O)ccc1OCC1(O)CC(F)(F)C1 [Example 46, 6-(5-Chloropyridin-2-yl)-3-(4-((3,3-difluoro-1-hydroxycyclobutyl)methoxy)-3-methoxyphenyl)pyrrolo[1,2-f][1,2,4]triazin-4(3H)-one-4(3H)-one]	2.6%		
COc1cc(-n2cnn3cc(-c4ccc(Cl)cc4)cc3c2=O)ccc1N1C[C@H](OC(=O)[C@@H](N)C(C)C)[C@H](OC(=O)[C@@H](N)C(C)C)C1 [Example 56, (2S,2′S)-((3S,4R)-1-(4-(6-(4-Chlorophenyl)-4-oxopyrrolo[1,2-f][1,2,4]triazin-3(4H)-yl)-2-methoxyphenyl)pyrrolidine-3,4-diyl)bis(2-amino-3-methylbutanoate), 2TFA]			9.4 nM
COc1cc(-n2cnn3cc(-c4ncc(Cl)cn4)cc3c2=O)ccc1OCC1(O)CC(F)(F)C1 [Example 57, 6-(5-Chloropyrimidin-2-yl)-3-(4-((3,3-difluoro-1-hydroxycyclobutyl)methoxy)-3-methoxyphenyl)pyrrolo[1,2-f][1,2,4]triazin-4(3H)-one]			9 nM
CCS(=O)(=O)C[C@H](COc1ccc(-n2cnn3cc(-c4ncc(Cl)cn4)cc3c2=O)cc1OC)OC(=O)CN [Example 61, (S)-1-(4-(6-(5-Chloropyrimidin-2-yl)-4-oxopyrrolo[1,2-f][1,2,4]triazin-3(4H)-yl)-2-methoxyphenoxy)-3-(ethylsulfonyl)propan-2-yl 2-aminoacetate, TFA]			126 nM
